Experimental data as given in patent publication US20250136563A1, “THIADIAZOLONE DERIVATIVES USEFUL AS AMPK ACTIVATOR” (Betagenon AB, priority 2021, published 2025).
“Also recorded” adds a separate entry of the source. Counter-ions that a name gives are not always drawn. Like-named read-outs stand apart in the source and are kept apart here. Blank lines part the entries; values can stand above or below the compound they belong to.

Tests used:
[1] = Single dose oral pharmacokinetic study of Compounds 5, 6, 7, 9, 10, 13, 14, 16 and 17 in Sprague Dawley rats; assay type: in vivo
Procedure: 10.0 mL of 2% w/v methyl cellulose solution in phosphate buffer (pH 7.5) was added to a 100 mL conical flask along with 1 g of 2 mm glass beads. The solution was vigorously stirred on a magnetic stirrer. 100 mg of Compound 1 was slowly added to the solution, and the solution was vigorously stirred for approximately 1 h. The pH of the formulation was measured to be 7.49. Each formulation was freshly prepared prior to administration to the animals. The final concentration of Compound 1 in of the formulation was 10 mg/mL. The formulation was administered at 5 mL/kg body weight. […]
Adult healthy male Sprague Dawley rats aged 8 to 10 weeks were used for experimentation after a minimum three days of acclimatization. Fed state animals were administered the formulation of Compound 1 or Compound 3 orally via gavage at a dose of 50 mg/kg or 65 mg/kg body weight, respectively.
Under mild isoflurane anesthesia, blood specimens were collected by retro-orbital puncture method using capillary tubes into pre-labeled tubes containing anticoagulant (K2EDTA: 2 mg/mL blood) during the next 72 hours post-dosing, as detailed in Table 6. For blood sampling at multiple time points, the right and left eyes were used alternatively. Collected blood specimens were centrifuged at 6000 rpm, 4° C. for 10 minutes and the plasma samples were separated and stored at −80° C. until analysis.
Formulations were prepared in accordance with the method described in Example 19.
Doses equivalent to 50 mg/kg of Compound 1 were selected for comparison of equimolar doses.
The administration and blood sampling were performed as described in Example 19.
The results for the single dose oral pharmacokinetic study in rats are tabulated in Tables 7 and below and are shown graphically in FIG. 3. In Table 7, the Cmax, Tmax, AUClast, AUCinf, AUCextrap and T1/2 values are for 4-chloro-N-[2-[(4-chlorophenyl)methyl]-3-oxo-1,2,4-thiadiazol-5-yl]benzamide (Compound 1), which was detected following the administration of the compounds.

[2] = mice; Das et al. 2019; cited from earlier work
[3] = Stability in HCl buffer (pH 1.20), 37° C.; assay type: physicochemical; conditions: for % remaining compared to 0.0 min: HCl buffer pH 1.20, 37° C.
Procedure: 5 μM solutions of Compound 1 and Compound 4 (i.e. the citric acid salt of Compound 3) in HCl buffer (pH: 1.20) were prepared with 5 mM DMSO stock solutions.

[4] = test system: AMPK; experiment: Activation of AMPK: Western blot of p-T172 AMPKα in INS-1E insulinoma cells; assay type: cell-based; conditions: for ratio between p-T172 AMPK and non-phosphorylated AMPK: INS-1E cells, 4 h, control 1.00
Procedure: INS-1E cells were cultivated as described in Steneberg et al., JCI Insight. 2018; 3(12):e99114. https://doi.org/10.1172/jci.insight.99114, using 5% instead of 10% fetal bovine serum when plated for treatment.
Compound 3 was dissolved at 10 mM in DMSO and frozen at −20° C.
The INS-1E cells were treated in serum free medium with increasing doses of Compound 3 for 4 hours in accordance with the methods described in Steneberg et al., JCI Insight. 2018; 3(12):e99114. https://doi.org/10.1172/jci.insight.99114.
Western blot analysis of the INS-1E cells was performed as described in Steneberg et. al., JCI Insight. 2018; 3(12):e99114. https://doi.org/10.1172/jci.insight.99114. The cell lysates were passed through a 30-gauge needle, ˜8-times and centrifuged for 10 min at +4° C. at 14000 rpm. Quantified values for AMPKα, and phosphorylated-T172 AMPKα, were normalized toward the quantified values for β-Actin.

[5] = Stability in buffers pH 1.20, 7.40 and 9.20 (Examples 26 and 27)
[6] = Single dose oral pharmacokinetic study of Compounds 1 and 3 in Sprague Dawley rats; assay type: in vivo; conditions: equimolar doses
Procedure: 10.0 mL of 2% w/v methyl cellulose solution in phosphate buffer (pH 7.5) was added to a 100 mL conical flask along with 1 g of 2 mm glass beads. The solution was vigorously stirred on a magnetic stirrer. 100 mg of Compound 1 was slowly added to the solution, and the solution was vigorously stirred for approximately 1 h. The pH of the formulation was measured to be 7.49. Each formulation was freshly prepared prior to administration to the animals. The final concentration of Compound 1 in of the formulation was 10 mg/mL. The formulation was administered at 5 mL/kg body weight.
6 mL of 2% w/v methyl cellulose solution in phosphate buffer (pH 7.5) was added to a 25 mL of conical flask together with 1 g of 2 mm glass beads. The solution was vigorously stirred on a magnetic stirrer. 78 mg of Compound 3 was slowly added to the solution, and the solution was vigorously stirred for approximately 1 h. The pH of the formulation was measured to be 7.41. […]
The results for the single dose oral pharmacokinetic study in rats are tabulated in Tables 5 and 6 below and are shown graphically in FIG. 2. In Table 5, the Cmax, Tmax, AUClast, AUCinf, AUCextrap, T1/2 and MRTlast values are for 4-chloro-N-[2-[(4-chlorophenyl)methyl]-3-oxo-1,2,4-thiadiazol-5-yl]benzamide (Compound 1), which was detected following the administration of both Compounds 1 and 3.

[7] = for % remaining after 15 min / % remaining after 30 min: buffer; for % remaining after 15 min: 0.25 h; for % remaining after 30 min: 0.5 h
[8] = analyte Compound 1 in plasma, oral, dose equivalent to 50 mg/kg of Compound 1

Compound: 2-({[5-(4-chlorobenzamido)-2-[(4-chlorophenyl)methyl]-3-oxo-1,2,4-thiadiazolidin-4-yl]methoxy}carbonyl)-1-methylpyrrolidine [Compound 10]
Plasma Concentration of Compound 1 ([1]; 0.00 h post-dose, oral, equivalent to 50 mg/kg of Compound 1): 0.00 µg/mL
Plasma Concentration of Compound 1 ([1]; 1.00 h post-dose): 76.70 µg/mL
Plasma Concentration of Compound 1 ([1]; 4.00 h post-dose): 106.37 µg/mL
Plasma Concentration of Compound 1 ([1]; 8.00 h post-dose): 100.53 µg/mL
Plasma Concentration of Compound 1 ([1]; 24.00 h post-dose): 26.77 µg/mL
AUCextrap [1, 8]: 17.81%
AUCinf [1, 8]: 2120.39 µg·h/mL
AUClast [1, 8]: 1745.15 µg·h/mL
Cmax [1, 8]: 114.03 µg/mL
T1/2 [1, 8]: 9.63 h
Tmax [1, 8]: 5.33 h

Compound: NCCCCC(N)C(=O)OCN1C(=O)N(Cc2ccc(Cl)cc2)SC1NC(=O)c1ccc(Cl)cc1.O=C(O)C(F)(F)F.O=C(O)C(F)(F)F (centres unmarked) [Compound 6, 6-{[5-(4-chlorobenzamido)-2-[(4-chlorophenyl)methyl]-3-oxo-1,2,4-thiadiazolidin-4-yl]methoxy}-6-oxohexane-1,5-bis(aminium) di-trifluoroacetate]
% remaining after 15 min ([5]; buffer pH 1.2): 83%
% remaining after 30 min ([5]; buffer pH 1.2): 86%
% remaining after 15 min ([5]; buffer pH 7.4): 33%
% remaining after 30 min ([5]; buffer pH 7.4): 33%

Compound: NC(CC(=O)O)C(=O)OCn1c(=O)n(Cc2ccc(Cl)cc2)s/c1=N/C(=O)c1ccc(Cl)cc1 (centres unmarked) [Compound 17, Trifluoroacetate]
% remaining after 15 min ([5]; buffer pH 1.2): 76%
% remaining after 30 min ([5]; buffer pH 1.2): 82%
% remaining after 15 min ([5]; buffer pH 7.4): 0%
% remaining after 30 min ([5]; buffer pH 7.4): 0%
Percentage of Compound 17 remaining compared to 0 minutes ([5]; pH 1.20, 0.0 min): 100.00
Percentage of Compound 17 remaining compared to 0 minutes ([5]; pH 1.20, 15.0 min): 76.19
Percentage of Compound 17 remaining compared to 0 minutes ([5]; pH 1.20, 30.0 min): 82.37
Percentage of Compound 17 remaining compared to 0 minutes ([5]; pH 1.20, 60.0 min): 73.33
Percentage of Compound 17 remaining compared to 0 minutes ([5]; pH 1.20, 120.0 min): 79.04
stability at pH 1.2 (in words) ([5]; pH 1.2, Trifluoroacetate): greatest stability; also recorded: relatively stable
Percentage of Compound 17 remaining compared to 0 minutes ([5]; pH 7.40, 0.0 min): 100.00
Percentage of Compound 17 remaining compared to 0 minutes ([5]; pH 7.40, 15.0 min): 0.13
Percentage of Compound 17 remaining compared to 0 minutes ([5]; pH 7.40, 30.0 min): 0.39
Percentage of Compound 17 remaining compared to 0 minutes ([5]; pH 7.40, 60.0 min): 0.47
Percentage of Compound 17 remaining compared to 0 minutes ([5]; pH 7.40, 120.0 min): 2.33
stability at pH 7.40 and above (in words) ([5]; pH 7.40 / higher pH, Trifluoroacetate): degrade rapidly; also recorded: very low
Percentage of Compound 17 remaining compared to 0 minutes ([5]; pH 9.20, 0.0 min): 100.00
Percentage of Compound 17 remaining compared to 0 minutes ([5]; pH 9.20, 15.0 min): 0.00
Percentage of Compound 17 remaining compared to 0 minutes ([5]; pH 9.20, 30.0 min): 0.00
Percentage of Compound 17 remaining compared to 0 minutes ([5]; pH 9.20, 60.0 min): 0.00
Percentage of Compound 17 remaining compared to 0 minutes ([5]; pH 9.20, 120.0 min): 0.00

Compound: CN(C)C(=N)N=C(N)N [metformin]
treating pain (in words) [2]: effective at treating pain

More lines, main results first:

% remaining compared to 0.0 min ([3]; 0.0 min): 100.00%
% remaining compared to 0.0 min ([3]; 15 min): 71.32%
% remaining compared to 0.0 min ([3]; 30 min): 63.05%
% remaining compared to 0.0 min ([3]; 60 min): 58.77%
% remaining compared to 0.0 min ([3]; 120 min): 43.04%
Compound: O=C(Nc1nc(=O)n(Cc2ccc(Cl)cc2)s1)c1ccc(Cl)cc1 [Compound 1, 4-chloro-N-[2-[(4-chlorophenyl)methyl]-3-oxo-1,2,4-thiadiazol-5-yl]benzamide, reference compound]
treating pain (in words) [2]: effective at treating pain

% remaining after 15 min ([5]; buffer pH 1.2): 97%
% remaining after 30 min ([5]; buffer pH 1.2): 83%
% remaining after 15 min ([5]; buffer pH 7.4): 46%
% remaining after 30 min ([5]; buffer pH 7.4): 16%
% remaining compared to 0.0 min ([3]; 0.0 min): 100.00%
% remaining compared to 0.0 min ([3]; 15 min): 96.92%
% remaining compared to 0.0 min ([3]; 30 min): 83.74%
% remaining compared to 0.0 min ([3]; 60 min): 86.54%
% remaining compared to 0.0 min ([3]; 120 min): 88.31%
stability in acidic solutions (in words) ([3]; pH 1.2): greater stability than Compound 1
increase in systemic exposure of Compound 1 after oral Compound 3 versus oral Compound 1 [6]: ten-fold
Compound: CN(C)CC(=O)OCn1c(=O)n(Cc2ccc(Cl)cc2)s/c1=N\C(=O)c1ccc(Cl)cc1 [Compound 3, Dimethylamino-Acetic Acid 5-[(Z)-4-chloro-benzoylimino]-2-(4-chloro-benzyl)-3-oxo-[1,2,4]thiadiazolidin-4-ylmethyl Ester]
ratio between p-T172 AMPK and non-phosphorylated AMPK ([4]; 1.25 μM): 1.24
ratio between p-T172 AMPK and non-phosphorylated AMPK ([4]; 2.5 μM): 2.24
ratio between p-T172 AMPK and non-phosphorylated AMPK ([4]; 5 μM): 5.99
phosphorylation of AMPK (in words) ([4]; cultured INS-1E cells): increases phosphorylation of AMPK in a dose-dependent manner; also recorded: increases phosphorylated-T172 AMPK in a dose-dependent manner

% remaining after 15 min ([5]; buffer pH 1.2): 100%
% remaining after 30 min ([5]; buffer pH 1.2): 100%
% remaining after 15 min ([5]; buffer pH 7.4): 46%
% remaining after 30 min ([5]; buffer pH 7.4): 13%
Compound: NCC(=O)OCn1c(=O)n(Cc2ccc(Cl)cc2)s/c1=N\C(=O)c1ccc(Cl)cc1 [Compound 9, Trifluoroacetate]

% remaining after 15 min ([7]; pH 1.2): 78%
% remaining after 15 min ([7]; pH 7.4): 0%
% remaining after 30 min ([7]; pH 1.2): 77%
% remaining after 30 min ([7]; pH 7.4): 0%
stability at pH 1.2 (in words) ([7]; pH 1.2): relatively stable
stability at pH 7.40 and above (in words) ([7]; pH 7.4): degrade rapidly
Compound: [azaniumyl({[(4S)-4-azaniumyl-4-[(2-{[5-(4-chlorobenzamido)-2-[(4-chlorophenyl)methyl]-3-oxo-1,2,4-thiadiazolidin-4-yl]methoxy}-2-oxoethyl)carbamoyl]butyl]amino})methylidene]azanium Trichloride [Compound 23]
